Test results reported in patent US20180085460A1, “METHODS OF TREATING PROSTATITIS” (Aquinox Pharmaceuticals (Canada) Inc., priority 2016, published 2018).

Columns and labels:
Assay type in all cases: in vivo
[1] = system: carrageenan-induced pelvic pain in male Sprague-Dawley rats; assay: Previous study: carrageenan-induced pelvic pain, AQX-1125 3, 10 and 30 mg/kg
Excerpt: An animal model of inflammation-induced pelvic pain for inflammatory CP/CPPS was developed and validated using intraprostatic (i.prost.) injection of carrageenan in male Sprague-Dawley rats (adapted from Radhakrishnan, R. and Nallu, R. S., 2009. Development and characterization of a novel animal model of prostate inflammation-induced chronic pelvic pain, Inflammopharmacology, 17: 23-28). This animal model was characterized by both referred mechanical allodynia (decreased mechanical threshold in response to innocuous von Frey forces) and referred mechanical hyperalgesia (increased nociceptive scores in response to noxious von Frey forces) (Augé C. et al., 2012, Nociceptive measures in chronic prostatitis: a model of inflammation-induced pelvic pain in rats, 14th World Congress on Pain (Milan, Italy)).

[2] = system: ventral prostate lobes of carrageenan-injected male Sprague-Dawley rats; assay: Ventral prostate lobes weight 7 days after carrageenan i.prost. injection; conditions: AQX-1125 0.3, 1, 3 or 10 mg/kg p.o.; seven days after carrageenan injection
Procedure: The whole prostate and ventral prostate lobes were weighed using a Scout® Pro balance (OHAUS, Nänikon, Switzerland).
AQX-1125 (0.3, 1, 3 and 10 mg/kg) or saline vehicle were administered orally (p.o.) once a day from D−3 to D+7 for a total of 11 administrations. At D0, D+1, D+3 and D+7 administrations were performed 2 h prior to von Frey testing. […] On the morning of each experimental day, rats were weighed and administrations were performed at a volume of 5 mL/kg.
(§1) Surgical procedures were performed in morning, as follows: anaesthesia was induced by 5% isoflurane and maintained with 2.5% isoflurane for the duration of the procedure. The surgical area (lower abdomen above the penis) and the scrotal skin were shaved. An incision was made in the skin and abdominal wall to expose both ventral lobes of the prostate gland. Carrageenan (30 mg/mL) was injected in both right and left ventral lobes of the prostate (˜12.5 μL per lobe).
After blood sampling, rats were sacrificed by cervical dislocation and the whole prostates were rapidly collected and weighed. Then both ventral prostate lobes were dissected and weighed together.

[3] = system: carrageenan-induced prostatitis model in male Sprague-Dawley rats; assay: Pelvic pain (von Frey filaments) in carrageenan-induced prostatitis model
Procedure: Animals were acclimatized to the laboratory conditions for at least 3 days before the start of experiments. Rats were housed in groups of 2 in polysulfone type Sealsafe plus GR900 cages (Tecniplast, Lyon, France) on a bed of wood chips with free access to food and water ad libitum. Species appropriate environmental enrichment was added to the cages. The animal house was maintained under artificial lighting 7:00 a.m. to 7:00 p.m. in a controlled ambient temperature of 22±2° C., and relative humidity maintained at 55±10%.
Mechanical stimulation was performed using von Frey filaments of different forces.
For each day of administration, the stock solution was allowed to equilibrate to room temperature under stirring, for at least 30 min.
Carrageenan was purchased from Sigma-Aldrich. Carrageenan (prepared fresh each day of injection) was dissolved in sterile physiological saline at a final concentration of 30 mg/mL (w/v).
Seven experimental groups of 10 animals were included in this study as described in the table below.
At D0, D+1, D+3 and D+7 administrations were performed 2 h prior to von Frey testing. […] On the morning of each experimental day, rats were weighed and administrations were performed at a volume of 5 mL/kg.
as §1
Control rats were injected with physiological saline under the same experimental conditions as carrageenan (i.e. i.prost., ˜12.5 μL per lobe).
After i.prost. injection, the wounds in both muscles were closed using absorbable suture and the skin layers were closed using permanent suture.
Pelvic pain was evaluated in a non-blinded manner by applying 6 von Frey filaments of increasing forces (0.16, 0.4, 0.6, 1, 1.4 and 2 g) to the scrotum area, with an interval of 5 seconds between each filament.
Prior to testing, the scrotal skin area designated for mechanical stimulation of each animal was shaved. Animals were placed on a raised wire mesh floor under individual transparent Plexiglas boxes and acclimatized for at least 30 min before starting the von Frey test. Filaments were then applied 1-2 seconds through the mesh floor with enough strength to cause the filament to slightly bend. Each filament was tested 3 times with an interval of 5 seconds between each application.
Nociceptive behavioral scores to von Frey filaments were assessed just before saline or carrageenan injection, in order to obtain basal values (D0), and at defined time points (D+1, D+3 and D+7) after saline or carrageenan injection.
Nociceptive behaviors were scored for each animal and each filament as follows: […]

[4] = system: carrageenan-induced prostatitis model in male Sprague-Dawley rats; assay: as above; remark: listed apart in the source
[5] = Ibuprofen 300 mg/kg p.o. once at D+3, 1 h prior to testing, p<0.001

| SMILES | anti-nociceptive properties on carrageenan-induced pelvic pain ([1]; AQX-1125 3, 10 and 30 mg/kg p.o. once a day during 11 days) | dose at which maximal effect was reached ([1]; doses tested 3, 10 and 30 mg/kg p.o.) [mg/kg] | ventral prostate lobes weight as a ratio of whole prostate weight [2] | ventral prostate lobes weight expressed in mg [2] | nociceptive threshold vs vehicle ([3]; AQX-1125 10 mg/kg p.o. once a day, D+1 p>0.05, D+3 and D+7 p<0.05) | AUC (0.16-2 g) of nociceptive scores vs vehicle ([3]; AQX-1125 10 mg/kg p.o., D+1 p>0.05, D+3 p<0.01, D+7 p<0.05) | nociceptive scores vs vehicle ([3]; AQX-1125 0.3, 1, 3 and 10 mg/kg p.o., all tested time-points (D+1, D+3, D+7)) | nociceptive threshold vs vehicle ([3]; AQX-1125 0.3, 1 and 3 mg/kg p.o. once a day, day 1, 3 and 7 post-carrageenan, p<0.05) | AUC (0.16-2 g) of nociceptive scores vs vehicle ([3]; AQX-1125 0.3, 1 and 3 mg/kg p.o., all tested time-points, p<0.01) | significance of effect on nociceptive scores ([3]; AQX-1125 all doses, 10 mg/kg at D1 p=0.0638) | anti-nociceptive properties beyond the optimal dose ([3]; AQX-1125 beyond 3 mg/kg (10 mg/kg p.o.)) | carrageenan-induced pelvic pain ([3]; AQX-1125 daily oral treatments at 0.3, 1 and 3 mg/kg) | dose at which maximal effect was reached ([3]; AQX-1125 p.o. once a day, doses tested 0.3, 1, 3 and 10 mg/kg) [mg/kg] | anti-nociceptive properties on carrageenan-induced pelvic pain ([3]; AQX-1125 repeated oral treatments once a day during 11 days at 0.3, 1 and 3 mg/kg) | optimal dose for pain management ([3]; rat model of carrageenan-induced chronic prostatitis, p.o.) [mg/kg] | nociceptive scores vs vehicle [4, 5] | nociceptive threshold vs vehicle [4, 5] | carrageenan-induced pelvic pain ([4]; Ibuprofen 300 mg/kg, 1 h after oral administration) |
| --- | --- | --- | --- | --- | --- | --- | --- | --- | --- | --- | --- | --- | --- | --- | --- | --- | --- | --- |
| C=C1CC[C@H]2[C@H](CN)[C@@H]([C@@]3(C)CC[C@H](O)C[C@@H]3CO)CC[C@]12C [AQX-1125, (1S,3S,4R)-4-((4R,7aS)-4-(aminomethyl)-7a-methyl-1-methyleneoctahydro-1H-inden-5-yl)-3-(hydroxymethyl)-4-methylcyclohexanol] | strong anti-nociceptive properties | 3 | had no effect on ventral prostate lobes weights | had no effect on ventral prostate lobes weights | reached the significance level only at day 3 and 7 | a significant effect was observed only at day 3 and 7 | decreases in nociceptive scores were observed | significantly and dose-dependently increased the nociceptive threshold | significant decreases in AUC (0.16-2 g) were observed | reached significance, except for the 10 mg/kg dose at D1 | less pronounced anti-nociceptive properties | significant and dose-related decreases in carrageenan-induced pelvic pain | 3 | strong anti-nociceptive properties | 3 | – | – | – |
| CC(C)Cc1ccc(C(C)C(=O)O)cc1 (racemic) [Ibuprofen, (RS)-2-(4-(2-methylpropyl)phenyl)propanoic acid] | – | – | – | – | – | – | – | – | – | – | – | – | – | – | – | decreases in nociceptive scores | a significant increase in the nociceptive threshold was observed | alleviated carrageenan-induced pelvic pain |
